# Test results taken from US10239832B2, “N-(1-hydroxy-3-(pyrrolidinyl)propan-2-yl)pyrrolidine-3-carboxamide derivatives as glucosylceramide synthase inhibitors” (BIOMARIN PHARMACEUTICAL INC., priority 2013, dated 2019).
# Molecular target: T1, GCS (Canis lupus familiaris, UniProt A0A8I3MXG6)
# T1 construct: endogenous in cells; host or cells: MDCK (Madin-Darby canine kidney) cells, whole-cell lysate
# T1 sequence (A0A8I3MXG6 1-394): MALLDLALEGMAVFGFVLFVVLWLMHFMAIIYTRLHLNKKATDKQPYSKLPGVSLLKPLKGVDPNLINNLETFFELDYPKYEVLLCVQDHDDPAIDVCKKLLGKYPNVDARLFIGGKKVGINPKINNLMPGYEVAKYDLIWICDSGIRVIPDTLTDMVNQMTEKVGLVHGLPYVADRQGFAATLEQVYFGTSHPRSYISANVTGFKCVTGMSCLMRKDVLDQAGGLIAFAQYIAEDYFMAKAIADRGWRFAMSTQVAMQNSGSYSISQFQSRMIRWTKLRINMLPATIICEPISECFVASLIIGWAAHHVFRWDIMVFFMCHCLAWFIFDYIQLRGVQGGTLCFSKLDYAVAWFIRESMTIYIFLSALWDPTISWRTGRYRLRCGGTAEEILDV
# Assay: GCS enzymatic assay (MDCK cell lysate, NBD-ceramide to glucosylceramide, LC/MS)
# Format: biochemical, canine
# Conditions: Table 2; class symbols A, B, C; the table does not say which of the assays; read-out: Data Range (IC50 values)
# In short: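 IC50 or percent inhibition came from LC/MS/MS (ESI+, MRM) of NBD-ceramide and glucosylceramide, with tolbutamide as internal standard. The reaction used MDCK (canine) cell lysate as the enzyme source and was ended with acetonitrile. Mock wells received 0.1% DMSO.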
row,SMILES,IC50 [µM]
1,"N#Cc1ccc(N2CCC(C(=O)N[C@H](CN3CCCC3)C(O)c3ccc(OC4CC4)c(Cl)c3)C2)cc1 (stereo in doubt) [Compound 152C, (R)-N-((1S,2R)-1-(3-chloro-4-cyclopropoxyphenyl)-1-hydroxy-3-(pyrrolidin-1-yl)propan-2-yl)-1-(4-cyanophenyl)pyrrolidine-3-carboxamide]",0.03 to 0.1
2,"O=C(N[C@H](CN1CCCC1)[C@H](O)c1ccc(OC2CC2)c(Cl)c1)C1CCN(c2ccc(Cl)cc2)C1 (stereo in doubt) [Compound 3, (S)-N-((1R,2R)-1-(3-chloro-4-cyclopropoxyphenyl)-1-hydroxy-3-(pyrrolidin-1-yl)propan-2-yl)-1-(4-chlorophenyl)pyrrolidine-3-carboxamide]",0.001 to 0.03
3,"O=C(N[C@H](CN1CCCC1)[C@H](O)c1cc(F)c2c(c1)OCCO2)[C@@H]1CCN(c2ccc3c(c2)CCCC3)C1 [Compound 93, (R)-N-((1R,2R)-1-(8-fluoro-2,3-dihydrobenzo[b][1,4]dioxin-6-yl)-1-hydroxy-3-(pyrrolidin-1-yl)propan-2-yl)-1-(5,6,7,8-tetrahydronaphthalen-2-yl)pyrrolidine-3-carboxamide]",0.001 to 0.03
4,"O=C(N[C@H](CN1CCCC1)[C@H](O)c1ccc2c(c1)OCCO2)C1CCN(c2ccc3ccsc3c2)C1 (stereo partly drawn) [Compound 53C, 1-(benzo[b]thiophen-6-yl)-N-((1R,2R)-1-(2,3-dihydrobenzo[b][1,4]dioxin-6-yl)-1-hydroxy-3-(pyrrolidin-1-yl)propan-2-yl)pyrrolidine-3-carboxamide]",0.03 to 0.1
5,"CC(C)(O)COc1ccc([C@@H](O)[C@@H](CN2CCCC2)NC(=O)[C@@H]2CCN(c3ccc4ccccc4c3)C2)cc1Cl [Compound 107, (R)-N-((1R,2R)-1-(3-chloro-4-(2-hydroxy-2-methylpropoxy)phenyl)-1-hydroxy-3-(pyrrolidin-1-yl)propan-2-yl)-1-(naphthalen-2-yl)pyrrolidine-3-carboxamide]",0.001 to 0.03
6,"O=C(N[C@H](CN1CCCC1)[C@H](O)c1cc(F)c2c(c1)OCCO2)[C@@H]1CCN(c2ccc3cc(Cl)ccc3n2)C1 [Compound 104, (R)-1-(6-chloroquinolin-2-yl)-N-((1R,2R)-1-(8-fluoro-2,3-dihydrobenzo[b][1,4]dioxin-6-yl)-1-hydroxy-3-(pyrrolidin-1-yl)propan-2-yl)pyrrolidine-3-carboxamide]",0.001 to 0.03

# Same assay, conditions: Table 2; class symbols D, E, F, NA (not active); the table does not say which of the assays
row,SMILES,Data Range (% inhibition)
1,"O=C(N[C@H](CN1CCCC1)[C@H](O)c1ccc2c(c1)OCCO2)[C@@H]1CCN(C(=O)c2ccccc2)C1 [Compound 121, (R)-1-benzoyl-N-((1R,2R)-1-(2,3-dihydrobenzo[b][1,4]dioxin-6-yl)-1-hydroxy-3-(pyrrolidin-1-yl)propan-2-yl)pyrrolidine-3-carboxamide]",NA (not active—a negative value was generated for % inhibition)
2,"O=C(N[C@H](CN1CCCC1)[C@H](O)c1ccc2c(c1)OCCO2)[C@@H]1CCN(c2ccc(OC3CC3)c(Cl)c2)C1 [Compound 20, (R)-1-(3-chloro-4-cyclopropoxyphenyl)-N-((1R,2R)-1-(2,3-dihydrobenzo[b][1,4]dioxin-6-yl)-1-hydroxy-3-(pyrrolidin-1-yl)propan-2-yl)pyrrolidine-3-carboxamide]",F (1-49% (or less than 50%))
3,"O=C(N[C@H](CN1CCCC1)[C@H](O)c1ccc2c(c1)OCCO2)[C@H]1CCN(c2ccc(Cl)cn2)C1 [Compound 28D, (S)-1-(5-chloropyridin-2-yl)-N-((1R,2R)-1-(2,3-dihydrobenzo[b][1,4]dioxin-6-yl)-1-hydroxy-3-(pyrrolidin-1-yl)propan-2-yl)pyrrolidine-3-carboxamide]",NA (not active—a negative value was generated for % inhibition)
4,"O=C(N[C@H](CN1CCCC1)[C@H](O)c1ccc(OC2CC2)nc1)[C@@H]1CCN(c2ccc(F)cc2)C1 [Compound 27, (R)-N-((1R,2R)-1-(6-cyclopropoxypyridin-3-yl)-1-hydroxy-3-(pyrrolidin-1-yl)propan-2-yl)-1-(4-fluorophenyl)pyrrolidine-3-carboxamide]",E (50-74% (or less than 75%))
